Results from patent US10280170B2, “Substituted 4,5,6,7-tetrahydro-pyrazolo[1,5-a]pyrazine derivatives and 5,6,7,8-tetrahydro-4H-pyrazolo[1,5-a][1,4]diazepine derivatives as Ros1 inhibitors” (Janssen Pharmaceutica NV, priority 2014, dated 2019).
Like-named read-outs stand apart in the source and are kept apart here.

How the values were obtained:
[1] = system: Ba/F3 cells containing Ros1 wild-type protein + IL-3; test: Ba/F3-Ros1 cell proliferation counter-screen, wild-type protein in the presence of 10 ng/ml murine IL-3; type: cell-based; conditions: Mus musculus, BaF3, 24 h, read-out: BaF3-ROS1 + IL3 pIC50 (converted)
How it was run: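 Proliferation of IL-3-supplemented (10 ng/ml, murine) Ba/F3 cells bearing wild-type Ros1 is measured after 24 h compound treatment. Alamar Blue conversion over 4 h gives fluorescence at 590 nm.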

[2] = biological target: Ba/F3 cells containing Ros1 with G2032R mutation (Homo sapiens, UniProt P08922, G2032R, cells depend on it, form not given); test: Ba/F3-Ros1 cell proliferation assay, G2032R crizotinib-resistance mutant; type: cell-based, murine; conditions: without IL-3
Ba/F3 cells containing Ros1 with G2032R mutation, sequence (P08922 whole entry G2032R, form open): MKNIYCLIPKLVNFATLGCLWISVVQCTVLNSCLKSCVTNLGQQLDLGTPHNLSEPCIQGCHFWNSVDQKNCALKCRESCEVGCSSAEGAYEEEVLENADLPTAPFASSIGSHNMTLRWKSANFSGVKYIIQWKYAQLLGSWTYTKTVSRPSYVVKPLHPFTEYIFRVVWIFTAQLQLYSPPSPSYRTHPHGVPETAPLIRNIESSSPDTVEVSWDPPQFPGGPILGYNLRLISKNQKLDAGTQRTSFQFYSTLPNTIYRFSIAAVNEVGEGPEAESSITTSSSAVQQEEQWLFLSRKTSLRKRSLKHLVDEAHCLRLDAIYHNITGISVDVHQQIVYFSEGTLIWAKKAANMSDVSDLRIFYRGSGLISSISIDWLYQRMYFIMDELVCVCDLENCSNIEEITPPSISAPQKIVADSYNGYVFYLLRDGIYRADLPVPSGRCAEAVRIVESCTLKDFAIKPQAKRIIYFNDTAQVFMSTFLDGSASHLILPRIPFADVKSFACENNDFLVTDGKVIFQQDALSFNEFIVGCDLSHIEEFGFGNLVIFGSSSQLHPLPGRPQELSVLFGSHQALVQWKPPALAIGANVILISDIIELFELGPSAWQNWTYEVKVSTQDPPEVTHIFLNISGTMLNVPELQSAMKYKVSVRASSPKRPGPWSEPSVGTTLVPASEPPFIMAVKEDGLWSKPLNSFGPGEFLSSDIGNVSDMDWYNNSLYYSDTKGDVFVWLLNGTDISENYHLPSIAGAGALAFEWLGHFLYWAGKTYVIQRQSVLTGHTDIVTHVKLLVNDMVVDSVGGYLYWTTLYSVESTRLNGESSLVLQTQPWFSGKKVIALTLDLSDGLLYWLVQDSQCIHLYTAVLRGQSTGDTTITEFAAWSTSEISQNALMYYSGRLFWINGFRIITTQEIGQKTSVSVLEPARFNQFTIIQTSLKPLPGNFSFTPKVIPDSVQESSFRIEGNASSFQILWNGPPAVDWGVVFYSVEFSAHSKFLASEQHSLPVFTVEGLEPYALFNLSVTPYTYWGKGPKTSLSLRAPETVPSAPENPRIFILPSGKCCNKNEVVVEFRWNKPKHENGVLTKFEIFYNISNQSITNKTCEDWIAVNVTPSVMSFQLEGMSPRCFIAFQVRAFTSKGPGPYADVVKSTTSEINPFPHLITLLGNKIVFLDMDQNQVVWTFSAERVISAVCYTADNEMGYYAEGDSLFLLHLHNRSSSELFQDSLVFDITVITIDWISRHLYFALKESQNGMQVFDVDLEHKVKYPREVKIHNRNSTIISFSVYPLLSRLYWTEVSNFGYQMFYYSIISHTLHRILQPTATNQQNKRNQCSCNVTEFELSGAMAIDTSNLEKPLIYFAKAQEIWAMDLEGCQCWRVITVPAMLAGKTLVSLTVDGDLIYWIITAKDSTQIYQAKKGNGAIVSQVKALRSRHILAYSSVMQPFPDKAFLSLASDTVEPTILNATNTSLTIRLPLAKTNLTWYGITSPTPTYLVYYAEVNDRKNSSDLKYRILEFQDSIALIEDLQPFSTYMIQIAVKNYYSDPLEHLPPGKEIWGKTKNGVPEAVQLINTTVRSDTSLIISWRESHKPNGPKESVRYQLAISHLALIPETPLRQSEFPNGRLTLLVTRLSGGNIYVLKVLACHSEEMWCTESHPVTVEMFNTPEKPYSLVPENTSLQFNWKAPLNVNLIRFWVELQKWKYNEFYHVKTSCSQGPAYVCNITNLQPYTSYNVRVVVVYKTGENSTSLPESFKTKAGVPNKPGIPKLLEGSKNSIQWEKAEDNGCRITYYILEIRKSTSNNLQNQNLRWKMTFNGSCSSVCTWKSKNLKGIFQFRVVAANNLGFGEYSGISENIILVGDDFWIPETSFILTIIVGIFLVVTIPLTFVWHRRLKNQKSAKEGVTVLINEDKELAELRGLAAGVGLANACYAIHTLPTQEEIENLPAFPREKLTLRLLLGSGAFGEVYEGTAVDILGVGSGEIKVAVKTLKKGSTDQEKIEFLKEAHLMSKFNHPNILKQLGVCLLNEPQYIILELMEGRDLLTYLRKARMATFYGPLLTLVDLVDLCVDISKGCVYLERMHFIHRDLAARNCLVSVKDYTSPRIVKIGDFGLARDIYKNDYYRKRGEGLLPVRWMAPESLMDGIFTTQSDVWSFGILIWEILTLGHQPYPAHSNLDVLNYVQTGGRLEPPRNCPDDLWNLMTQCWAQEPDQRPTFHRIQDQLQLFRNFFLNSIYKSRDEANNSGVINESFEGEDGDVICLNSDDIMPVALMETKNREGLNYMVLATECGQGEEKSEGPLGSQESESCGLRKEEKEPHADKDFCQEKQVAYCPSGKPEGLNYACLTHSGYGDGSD
Description: Ba/F3-Ros1 Cell Proliferation Assay
This assay was carried out with Ba/F3 cells containing three different versions of Ros1: the wild-type protein, protein with a mutation at the gatekeeper residue (L2026M), and protein with a mutation identified in a tumor from a patient that became resistant to crizotinib (Xalkori®) treatment (G2032R). Compounds were solubilized in 100% DMSO (dimethyl sulfoxide) and sprayed into polystyrene, tissue culture treated 384-well plates. A 50 μl volume of cell culture medium (phenol red free RPMI-1640, 10% FBS (fetal bovine serum), 2 mM L-Glutamine) containing 20000 Ba/F3-Ros1 cells was added to each well and the plates were placed in an incubator at 37° C. and 5% CO2. After 24 hours, 10 μl of Alamar Blue solution (0.5 mM K3Fe(CN)6, 0.5 mM K4Fe(CN)6, 0.15 mM Resazurin and 100 mM Phosphate Buffer) was added to the wells, incubated for 4 hours at 37° C. and 5% CO2 before RFU's (Relative Fluorescence Units) (ex. 540 nm., em. 590 nm.) were measured in a fluorescence plate reader.

[3] = biological target: Ba/F3 cells containing Ros1 with a mutation at the gatekeeper residue (L2026M) (Homo sapiens, UniProt P08922, L2026M, cells depend on it, form not given); test: Ba/F3-Ros1 cell proliferation assay, L2026M gatekeeper mutant; type: cell-based, murine; conditions: without IL-3
Ba/F3 cells containing Ros1 with a mutation at the gatekeeper residue (L2026M), sequence (P08922 whole entry L2026M, form open): as the sequence (P08922 whole entry G2032R, form open) above, with L2026M, R2032G counted along it
How it was run: (§1)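 20000 Ba/F3-Ros1 cells/well (WT, L2026M, G2032R), RPMI-1640 phenol red free + 10% FBS + 2 mM Gln, cpds from DMSO; 24 h, 37 °C, 5% CO2. Alamar Blue 4 h, RFU ex540/em590.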

[4] = biological target: T1, Ros1 enzyme (Homo sapiens, UniProt P08922); test: Ros1 enzymatic assay; type: biochemical; conditions: Ros1 enzymatic assay; for IC50: read-out: ROS1 pIC50 (converted)
T1 construct: 0.5 μg/ml Ros1 enzyme
T1 sequence (P08922 28-2347): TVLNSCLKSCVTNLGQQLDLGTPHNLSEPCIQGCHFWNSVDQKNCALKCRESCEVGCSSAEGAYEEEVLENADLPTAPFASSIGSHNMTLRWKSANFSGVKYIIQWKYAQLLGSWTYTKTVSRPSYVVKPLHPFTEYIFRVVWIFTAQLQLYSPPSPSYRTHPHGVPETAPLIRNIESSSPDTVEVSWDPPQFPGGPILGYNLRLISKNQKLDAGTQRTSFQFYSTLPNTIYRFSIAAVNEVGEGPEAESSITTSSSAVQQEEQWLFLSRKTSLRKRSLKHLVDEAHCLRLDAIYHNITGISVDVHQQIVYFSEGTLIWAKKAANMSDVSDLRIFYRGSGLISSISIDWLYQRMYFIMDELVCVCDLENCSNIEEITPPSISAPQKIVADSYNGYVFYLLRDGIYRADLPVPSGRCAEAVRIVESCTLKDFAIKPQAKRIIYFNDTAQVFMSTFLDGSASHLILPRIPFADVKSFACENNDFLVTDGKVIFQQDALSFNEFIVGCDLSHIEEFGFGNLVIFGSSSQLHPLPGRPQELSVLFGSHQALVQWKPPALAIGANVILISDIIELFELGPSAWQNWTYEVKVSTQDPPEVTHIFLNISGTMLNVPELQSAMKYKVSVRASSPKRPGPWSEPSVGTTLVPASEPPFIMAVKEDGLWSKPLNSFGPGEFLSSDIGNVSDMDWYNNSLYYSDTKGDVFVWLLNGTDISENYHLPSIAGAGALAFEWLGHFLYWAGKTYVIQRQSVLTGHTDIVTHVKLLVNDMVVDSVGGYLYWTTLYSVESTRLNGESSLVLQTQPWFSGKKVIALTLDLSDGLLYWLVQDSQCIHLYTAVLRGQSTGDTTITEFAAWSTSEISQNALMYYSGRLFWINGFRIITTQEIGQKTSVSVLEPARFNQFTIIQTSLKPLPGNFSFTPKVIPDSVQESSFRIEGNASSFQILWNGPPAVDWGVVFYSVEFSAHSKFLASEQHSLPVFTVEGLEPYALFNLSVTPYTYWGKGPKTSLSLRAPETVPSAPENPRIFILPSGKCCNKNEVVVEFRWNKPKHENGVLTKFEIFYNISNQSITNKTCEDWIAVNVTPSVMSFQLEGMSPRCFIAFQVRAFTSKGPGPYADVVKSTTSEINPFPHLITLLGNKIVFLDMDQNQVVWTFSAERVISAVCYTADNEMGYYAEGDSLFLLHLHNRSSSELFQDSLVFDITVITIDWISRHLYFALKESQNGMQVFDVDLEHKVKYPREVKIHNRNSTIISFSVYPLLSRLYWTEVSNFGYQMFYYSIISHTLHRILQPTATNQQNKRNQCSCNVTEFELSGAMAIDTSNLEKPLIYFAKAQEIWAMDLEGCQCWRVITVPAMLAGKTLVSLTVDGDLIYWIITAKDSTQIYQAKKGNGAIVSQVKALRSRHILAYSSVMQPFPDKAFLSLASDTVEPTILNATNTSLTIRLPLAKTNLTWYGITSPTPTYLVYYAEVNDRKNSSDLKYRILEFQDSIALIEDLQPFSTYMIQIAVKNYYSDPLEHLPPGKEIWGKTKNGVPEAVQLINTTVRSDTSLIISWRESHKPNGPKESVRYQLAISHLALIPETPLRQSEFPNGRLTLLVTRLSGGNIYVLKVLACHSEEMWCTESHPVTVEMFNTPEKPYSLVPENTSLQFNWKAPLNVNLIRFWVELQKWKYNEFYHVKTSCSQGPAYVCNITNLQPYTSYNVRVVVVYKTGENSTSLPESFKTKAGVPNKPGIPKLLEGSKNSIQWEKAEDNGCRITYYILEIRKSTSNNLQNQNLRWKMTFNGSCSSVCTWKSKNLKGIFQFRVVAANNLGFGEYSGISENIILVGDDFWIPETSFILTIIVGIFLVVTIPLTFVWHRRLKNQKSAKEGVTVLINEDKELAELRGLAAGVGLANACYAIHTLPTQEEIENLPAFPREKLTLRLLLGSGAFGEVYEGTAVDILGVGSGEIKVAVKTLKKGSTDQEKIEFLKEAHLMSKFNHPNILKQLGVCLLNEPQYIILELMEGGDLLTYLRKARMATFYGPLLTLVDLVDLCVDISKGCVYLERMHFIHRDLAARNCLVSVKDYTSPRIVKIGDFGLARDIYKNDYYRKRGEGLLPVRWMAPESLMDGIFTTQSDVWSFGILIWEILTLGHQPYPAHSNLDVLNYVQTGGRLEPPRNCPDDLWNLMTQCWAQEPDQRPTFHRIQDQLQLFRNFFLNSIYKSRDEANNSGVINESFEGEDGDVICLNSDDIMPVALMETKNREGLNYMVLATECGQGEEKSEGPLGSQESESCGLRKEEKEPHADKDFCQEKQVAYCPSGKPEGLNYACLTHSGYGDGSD
How it was run: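 Peptide phosphorylation by Ros1 is measured by 33P transfer from 20 μM ATP (as prepared in substrate mix) over 2 h at ambient temperature, pH 7.5 with Mg2+.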

[5] = biological target: T2, Ba/F3 cells containing Ros1 wild-type protein (Homo sapiens, UniProt P08922, cells depend on it, form not given); test: Ba/F3-Ros1 cell proliferation assay, wild-type Ros1; type: cell-based, murine; conditions: without IL-3
T2 construct: The background only speaks of 'a number of different unrelated proteins' and names SLC34A2-ROS1 for HCC78 cells
T2 sequence (P08922 whole entry, stated change not applied): as the sequence (P08922 whole entry G2032R, form open) above, with R2032G counted along it
How it was run: as §1

[6] = system: HCC78 non-small cell lung cancer cells; test: HCC78 cell proliferation assay; type: cell-based; conditions: for EC50: Homo sapiens, HCC78, 96 h, read-out: HCC-78 PROL pEC50 (converted)
How it was run: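 HCC78 NSCLC cells (~1000/well) in RPMI-1640 with 10% FBS were treated 24 h after seeding and exposed to compound for 4 days at 37 °C. Viability was read by MTT, with absorbance at 538 nm after DMSO/glycine solubilization.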

[7] = system: Ros pY2274 in HCC78 cells; test: pROS1 immunofluorescence assay in HCC78 cells; type: cell-based; conditions: Homo sapiens, read-out: HCC78-pRos1 pIC50 (converted)
Description: pROS1 Immunofluorescence Assay in HCC78 Cells
Approximately 20000 HCC78 non-small cell lung cancer cells in 180 μl of cell culture medium (RPMI-1640, 10% FBS, 2 mM L-Glutamine, 10 mM Hepes, 1 mM sodium pyruvate, 4.5 g/L glucose, 1.5 g/L sodium bicarbonate, 25 μg/ml Gentamycin) were seeded in each well of a 96-well polystyrene, poly-D-lysine coated plate and incubated at 37° C. and 5% CO2. After 24 hours, compounds were diluted in cell culture medium from which 20 μl was added to the wells containing cells and incubated for 4 hours at 37° C. and 5% CO2. The medium was removed and the cells were fixed by adding 100 μl of 5% formaldehyde in TBS (tris-buffered saline) (50 mM Tris.HCl, pH 7.4, 150 mM NaCl) and incubating for 15 minutes at room temperature. The formaldehyde was removed and replaced with methanol for 10 minutes at room temperature, after which the cells were washed 3 times with TBS containing 1% Triton X-100 and incubated in Odyssee (Li-Cor) blocking buffer for 1 hour at room temperature. The cells were then incubated with the primary rabbit antibody directed against Ros pY2274 (cst-3078) diluted 1/200 in blocking buffer for 24 hours at room temperature. The cells were washed three times with TBS containing 0.1% Triton X-100 and incubated with a secondary anti-rabbit antibody conjugated to the fluorescent dye Alexafluor 680 in blocking buffer for 1 hour at room temperature. The cells were washed three times with TBS containing 0.1% Triton X-100 and left to dry before measuring RFUs (Relative Fluorescence Units) at 700 nm using a fluorescence imager.
The same experiment was performed using total Ros1 antibody (sc-6347) diluted 1/1000 instead of Ros1 pY2274 antibody and an anti-goat antibody conjugated to IRDye800cw as a secondary antibody. RFUs were measured at […]. The signals from total Ros1 detection were used to normalize the Ros1 pY2274 values.

[8] = counter-screen, wild-type, 10 ng/ml murine IL-3
[9] = HCC78 cells, 4 hours, Ros pY2274 normalized to total Ros1

Row | SMILES | CC50 [1, 8] [nM] | Ba/3 Ros1 G2032R (-IL-3) pIC50 [2] | Ba/F3 Ros1 L2026M (-IL-3) pIC50 [3] | IC50 [4] [nM] | BaF3-ROS1-IL3 pIC50 [5] | EC50 ([6]; HCC78 cells, 4 days, MTT) [nM] | CC50 [1] [nM] | EC50 [6] [nM] | melting point [°C] | IC50 [7, 9] [nM] | ROS1 pIC50 [4] | HCC-78 PROL pEC50 ([6]; HCC78 cells, 4 days, MTT) | IC50 ([7]; HCC78, 4 h) [nM]
1 | CC(O)CN1CCn2nc(-c3ccncc3)c(-c3ccc(OCc4ccc(C(C)C)cc4)cc3)c2C1=O (centres unmarked) [Compound 47] | > 10000 | 6.9 | 7.5 | 50.1 | 7.3 | 79.4 | – | – | – | – | – | – | –
2 | CC(C)c1ccc(COc2ccc(-c3c(-c4ccncc4)nn4c3C(=O)N(CCO)CC4)c(C#N)c2)cc1 [Compound 28] | – | 7.3 | 7.7 | 15.8 | 7.8 | – | > 10000 | 63.1 | 185 | – | – | – | –
3 | CNC(=O)CN1CCn2nc(-c3ccncc3)c(-c3ccc(OCc4ccc(C(C)C)cc4)cc3)c2C1=O [Compound 63] | – | 6.7 | 7.3 | 100 | 7.1 | – | > 10000 | 398 | 161 | – | – | – | –
4 | CC(C)c1ccc(C2CCc3cc(-c4c(-c5ccncc5)nn5c4C(=O)N(CCO)CC5)ccc3O2)cc1 (centres unmarked) [Compound 200] | – | 6.6 | 6.3 | 126 | 7.3 | – | > 10000 | 316 | – | – | – | – | –
5 | CC(C)c1ccc(COc2ccc(-c3c(-c4ccncc4)nn4c3C(=O)N(CCO)CC4)c(F)c2)cc1 [Compound 21] | – | 7.4 | 7.6 | 10 | 7.8 | – | > 10000 | 39.8 | 141 | – | – | – | –
6 | COc1ccc(COc2ccc(-c3c(-c4ccncc4)nn4c3C(=O)NCC4)cc2)cc1 [Compound 112] | > 10000 | 5.8 | – | 158 | 6.8 | 1000 | – | – | 260 | 316 | – | – | –
7 | CC(C)c1ccc(COc2ccc(-c3c(-c4ccncc4)nn4c3C(=O)N(CC(C)(C)O)CC4)cc2)cc1 [Compound 51] | – | 6.6 | 7.3 | 79.4 | 7.2 | – | > 10000 | 100 | 211 | – | – | – | –
8 | CC(C)c1ccc(COc2ccc(-c3c(-c4ccncn4)nn4c3C(=O)N(CCO)CC4)cc2)cc1 [Compound 159] | – | 6.4 | 7.2 | 50.1 | 7.3 | – | > 10000 | 63.1 | 160 | – | – | – | –
9 | CC(O)CN1CCn2nc(-c3ccncc3)c(-c3ccc(OCc4ccc(C(C)C)cc4)cc3)c2C1=O (centres unmarked) [Compound 46] | – | 6.9 | 7.1 | – | 7.5 | – | – | – | 177 | – | 7.3 | 7.0 | –
10 | COCCc1cc(COc2ccc(-c3c(-c4ccncc4)nn4c3C(=O)NCC4)cc2)ccc1C(C)C [Compound 84] | – | 7.0 | 7.2 | 25.1 | 7.7 | – | > 10000 | 31.6 | 208 | – | – | – | –
11 | CC(C)c1ccc(COc2ccc(-c3c(-c4ccncc4)nn4c3C(=O)N(CCO)CC4)cc2F)cc1 [Compound 19] | – | 7.5 | 8.0 | 12.6 | 8.2 | – | > 10000 | < 31.6 | 172 | – | – | – | –
12 | O=C1NC2(CNC2)Cn2nc(-c3ccncc3)c(-c3ccc(OCc4ccc(C5CC5)cc4)cc3)c21 [Compound 183] | > 10000 | 5.6 | – | 200 | 6.0 | 1580 | – | – | 173 | 398 | – | – | –
13 | CC(C)c1ccc(COc2ccc(-c3c(-c4ccncc4)nn4c3C(=O)NCC4)cc2F)cc1 [Compound 18] | – | 7.3 | 7.7 | 10 | 7.7 | – | > 10000 | 39.8 | 241 | – | – | – | –
14 | CC(C)c1ccc(COc2ccc(-c3c(-c4ccncc4)nn4c3C(=O)N(CC(O)CO)CC4)cc2)cc1 (centres unmarked) [Compound 44] | – | 6.8 | 6.9 | 50.1 | 7.4 | – | – | – | 192 | – | – | 6.6 | –
15 | c1cc(-c2nn3c(c2-c2ccc(OCc4ccc(C5CC5)cc4)cc2)CNCC3)ccn1 [Compound 172] | > 10000 | 5.2 | 6.3 | 631 | 6.4 | 3980 | – | – | – | 316 | – | – | –
16 | CC(C)c1ccc(COc2ccc(-c3c(-c4ccncn4)nn4c3C(=O)NCC4)cc2)cc1 [Compound 158] | – | 6.5 | 7.4 | 50.1 | 7.4 | – | > 10000 | 316 | – | – | – | – | 126
17 | CC(C)c1cc(F)c(COc2ccc(-c3c(-c4ccncc4)nn4c3C(=O)N(CCO)CC4)cc2)cc1F [Compound 97] | – | <5 | 6.3 | 158 | 6.9 | – | > 10000 | 3160 | 147 | – | – | – | –
18 | CC(C)c1ccc(COc2ccc(-c3c(-c4ccncc4)nn4c3C(=O)N(CCOCCO)CC4)cc2)cc1 [Compound 53] | > 10000 | 7.0 | 6.9 | 39.8 | 7.4 | 100 | – | – | 121 | – | – | – | –
